Measurements taken from ChEMBL document CHEMBL1201862, “PubChem BioAssay data set” (2004).
Calls of active or inactive are those of the source.

How the values were obtained:
[1] = viability of uninfected HEp-2 cells – cell-based, HTS, cytotoxicity control for RSV inhibitor project, dose response (AID 2410); format: functional; details: human respiratory syncytial virus
[2] = test system: Streptococcus sp. 'group A'; assay: Streptococcus pyogenes SK(-)GAS viability under kanamycin – luminescence, BacTiterGlo, confirmation, counter-screen for streptokinase expression inhibitor project, dose response (AID 1900); format: functional, organism-based
Streptokinase A = biological target: T1, Streptokinase A (Streptococcus pyogenes serotype M1, UniProt P10520); assay: viability-normalized secreted streptokinase activity reduction – plasminogen activation absorbance, OD405, dose response (AID 1914); format: functional, Streptococcus pyogenes M1 GAS;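 note: secreted streptokinase activity via plasminogen activation per viability signal from cell pellet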
T1 sequence (P10520 whole entry): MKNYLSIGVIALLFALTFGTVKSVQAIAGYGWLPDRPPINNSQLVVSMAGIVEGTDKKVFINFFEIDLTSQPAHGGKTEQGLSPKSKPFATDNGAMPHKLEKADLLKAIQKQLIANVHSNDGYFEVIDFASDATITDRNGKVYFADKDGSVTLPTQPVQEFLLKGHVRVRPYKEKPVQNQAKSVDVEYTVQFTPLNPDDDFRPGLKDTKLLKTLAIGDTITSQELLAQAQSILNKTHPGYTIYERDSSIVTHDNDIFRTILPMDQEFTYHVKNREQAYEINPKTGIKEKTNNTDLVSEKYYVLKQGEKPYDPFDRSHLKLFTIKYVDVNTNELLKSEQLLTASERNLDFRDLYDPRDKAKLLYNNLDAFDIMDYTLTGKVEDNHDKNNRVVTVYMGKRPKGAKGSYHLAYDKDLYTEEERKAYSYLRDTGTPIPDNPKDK

Streptococcus = assay: GAS UMAA2166 growth inhibition – luminescence, BacTiterGlo, counter-screen for streptokinase expression inhibitor project, dose response (AID 1915); format: functional, organism-based;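 note: potency for reduction of bacterial viability or growth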
[3] = biological target: T2, Methionyl-tRNA synthetase, putative (Trypanosoma brucei brucei, UniProt Q38C91); format: functional, Trypanosoma brucei brucei strain 927/4 GUTat10.1
T2 sequence (Q38C91 whole entry): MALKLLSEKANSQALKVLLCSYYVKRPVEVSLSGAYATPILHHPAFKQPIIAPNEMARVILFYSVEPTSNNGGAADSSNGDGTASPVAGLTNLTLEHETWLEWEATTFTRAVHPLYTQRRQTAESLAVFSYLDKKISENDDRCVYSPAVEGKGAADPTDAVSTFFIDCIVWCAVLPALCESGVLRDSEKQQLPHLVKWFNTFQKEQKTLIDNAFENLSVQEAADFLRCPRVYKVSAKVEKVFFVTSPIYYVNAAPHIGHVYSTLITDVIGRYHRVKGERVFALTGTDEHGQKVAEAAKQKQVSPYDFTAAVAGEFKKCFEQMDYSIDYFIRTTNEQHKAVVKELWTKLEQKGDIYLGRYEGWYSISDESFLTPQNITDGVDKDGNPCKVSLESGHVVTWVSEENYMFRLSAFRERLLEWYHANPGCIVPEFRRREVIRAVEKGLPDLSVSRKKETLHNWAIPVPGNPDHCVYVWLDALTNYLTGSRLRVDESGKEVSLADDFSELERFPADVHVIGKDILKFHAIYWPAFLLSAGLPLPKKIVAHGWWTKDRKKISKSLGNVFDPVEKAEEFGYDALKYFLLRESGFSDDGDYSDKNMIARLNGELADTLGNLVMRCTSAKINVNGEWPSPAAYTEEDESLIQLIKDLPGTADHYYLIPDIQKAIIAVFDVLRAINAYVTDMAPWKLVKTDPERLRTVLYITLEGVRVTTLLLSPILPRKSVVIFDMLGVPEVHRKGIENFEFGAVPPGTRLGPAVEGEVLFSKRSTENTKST

[4] = Counterscreen for inhibitors of Trypanosoma brucei methionyl tRNA synthetase (MetRS): Luminescence-based cell-based high throughput dose response assay to identify compounds that are cytotoxic to Jurkat human T lymphocyte cells.; format: functional
[5] = biological target: T2, Methionyl-tRNA synthetase, putative; format: functional, Trypanosoma brucei brucei strain 927/4 GUTat10.1; remark: listed apart in the source
[6] = biological target: T3, Low molecular weight phosphotyrosine protein phosphatase (Homo sapiens, UniProt P24666); format: functional; details: read-out: IC50_Mean;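 note: Dose-response confirmation assay measuring inhibition of LMPTP enzyme activity by fluorescence intensity read-out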
T3 sequence (P24666 whole entry): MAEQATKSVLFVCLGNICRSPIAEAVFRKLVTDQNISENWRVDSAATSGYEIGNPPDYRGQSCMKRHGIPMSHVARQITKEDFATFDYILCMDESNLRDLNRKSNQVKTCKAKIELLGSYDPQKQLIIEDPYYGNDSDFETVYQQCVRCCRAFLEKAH

[7] = biological target: T4, Mitochondrial peptide methionine sulfoxide reductase (Bos taurus, UniProt P54149); assay: Absorbance-based biochemical high throughput dose response assay for activators of Methionine sulfoxide reductase A (MsrA).; format: functional
T4 sequence (P54149 whole entry): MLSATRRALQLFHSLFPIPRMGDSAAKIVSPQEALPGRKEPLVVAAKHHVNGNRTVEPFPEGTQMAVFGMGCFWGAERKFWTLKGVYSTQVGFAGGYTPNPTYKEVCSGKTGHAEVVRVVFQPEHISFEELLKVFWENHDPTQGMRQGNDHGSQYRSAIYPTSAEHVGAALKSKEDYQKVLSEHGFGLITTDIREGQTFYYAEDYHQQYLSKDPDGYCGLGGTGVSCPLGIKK

[8] = biological target: FAD-linked sulfhydryl oxidase ALR (Homo sapiens, UniProt P55789); assay: ALR-catalysed DTT oxidation blockers – biochemical, H2O2 detection, luminescence, cherry-pick, dose response (AID 493248)
[9] = biological target: Photoreceptor-specific nuclear receptor (Homo sapiens, UniProt Q9Y5X4); format: functional, cell-based;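 note: CHO-S cells with Gal4-NCOR and VP16-NR2E3 two-hybrid luciferase reporter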
[10] = Luminescence Cell-Based Dose Confirmation HTS to Identify Activators of 5'UTR Stem-Loop Driven Alpha-Synuclein mRNA Translation in H4 Neuroglioblastoma Cells. [Related pubchem assays: 1829 (Project Summary), 1814 (Primary HTS)]; format: functional
[11] = Luminescence Cell-Based Dose Response HTS to Identify Activators of Luciferase Translation or Activity in H4 […] Cells. [Related pubchem assays: 1829 (Project Summary), 1814 (Primary HTS)]; format: functional
H4 = assay: Luminescence Cell-Based Dose Response HTS to Identify Activators of 5'UTR Stem-Loop Driven Prion Protein mRNA Translation in H4 Neuroglioblastoma Cells. [Related pubchem assays: 1829 (Project Summary), 1814 (Primary HTS)]; format: functional; details: Homo sapiens
[12] = biological target: T5, Microphthalmia-associated transcription factor (Homo sapiens, UniProt O75030); assay: reducers of TRPM1 reporter luminescence, concentration series – cell-based, SK-MEL-5, cherry-picked, set 3, MITF inhibitor project, dose response (AID 493073); format: functional;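 note: SK-MEL-5 melanoma cells with luciferase driven by the MITF target TRPM1 promoter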
T5 sequence (O75030 whole entry): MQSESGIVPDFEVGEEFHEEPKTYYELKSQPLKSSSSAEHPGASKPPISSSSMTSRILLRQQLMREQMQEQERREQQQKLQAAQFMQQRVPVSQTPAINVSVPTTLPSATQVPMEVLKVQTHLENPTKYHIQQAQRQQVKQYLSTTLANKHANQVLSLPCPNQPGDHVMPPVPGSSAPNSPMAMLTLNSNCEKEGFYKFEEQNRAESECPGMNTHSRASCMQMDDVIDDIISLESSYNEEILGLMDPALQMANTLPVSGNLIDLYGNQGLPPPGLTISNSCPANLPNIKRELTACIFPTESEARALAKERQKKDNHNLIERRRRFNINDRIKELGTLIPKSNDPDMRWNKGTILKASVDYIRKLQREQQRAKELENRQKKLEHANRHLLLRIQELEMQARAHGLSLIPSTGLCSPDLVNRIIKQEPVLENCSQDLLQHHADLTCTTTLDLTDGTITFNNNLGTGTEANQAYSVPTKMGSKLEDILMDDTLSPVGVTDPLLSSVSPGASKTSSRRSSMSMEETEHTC

[13] = biological target: T6, Endoribonuclease toxin MazF (Escherichia coli K-12, UniProt P0AE70); assay: activation of MazEF endoribonuclease cleavage – biochemical, fluorescence, single-stranded RNA substrate, uHTS hits, dose response (AID 588481); format: functional
T6 sequence (P0AE70 whole entry): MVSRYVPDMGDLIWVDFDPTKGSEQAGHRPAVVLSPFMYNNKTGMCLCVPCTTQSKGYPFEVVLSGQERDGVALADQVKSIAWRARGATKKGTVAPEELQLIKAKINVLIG

[14] = biological target: T6, Endoribonuclease toxin MazF; assay: substrate-only fluorescence increase artefacts – biochemical, single-stranded RNase substrate, counter-screen for MazEF activator project, dose response (AID 588502); format: functional
[15] = biological target: Dual specificity tyrosine-phosphorylation-regulated kinase 1A (Rattus norvegicus, UniProt Q63470); format: biochemical, Homo sapiens
[16] = biological target: T7, Rac GTPase-activating protein 1 (Homo sapiens, UniProt Q9H0H5); assay: blockers of MgcRacGAP-driven Rac1 GTP hydrolysis – biochemical, ADP Hunter fluorescence, primary and confirmatory, confirmation (AID 624330); format: functional
T7 sequence (Q9H0H5 whole entry): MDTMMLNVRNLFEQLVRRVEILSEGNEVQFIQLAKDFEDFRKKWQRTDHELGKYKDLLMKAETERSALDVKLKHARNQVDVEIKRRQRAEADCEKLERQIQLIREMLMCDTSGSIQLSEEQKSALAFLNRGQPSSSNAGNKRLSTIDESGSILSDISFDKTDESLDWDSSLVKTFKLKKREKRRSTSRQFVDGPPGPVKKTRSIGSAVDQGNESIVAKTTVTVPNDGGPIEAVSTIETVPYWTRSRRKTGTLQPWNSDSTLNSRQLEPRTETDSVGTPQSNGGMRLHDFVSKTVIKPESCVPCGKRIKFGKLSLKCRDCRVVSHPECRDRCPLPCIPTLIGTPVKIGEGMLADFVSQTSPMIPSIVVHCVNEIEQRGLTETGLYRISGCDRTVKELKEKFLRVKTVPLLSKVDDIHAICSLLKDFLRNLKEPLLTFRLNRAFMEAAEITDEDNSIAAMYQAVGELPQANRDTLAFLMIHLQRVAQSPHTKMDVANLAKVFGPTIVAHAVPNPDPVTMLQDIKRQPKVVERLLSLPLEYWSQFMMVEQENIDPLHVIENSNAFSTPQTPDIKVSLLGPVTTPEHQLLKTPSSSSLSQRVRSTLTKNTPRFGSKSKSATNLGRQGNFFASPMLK

Cytochrome P450 3A4 = Cytochrome P450 3A4 (Homo sapiens, UniProt P08684);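 note: CYP3A4 tested as one member of a cytochrome P450 panel screen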
Beta-galactosidase = Beta-galactosidase (Escherichia coli, UniProt Q8VNN2); assay: PubChem AID 485352; format: functional
[17] = biological target: T8, Type-1 angiotensin II receptor (Homo sapiens, UniProt P30556); assay: antagonism of angiotensin II type 1 receptor – cell-based, uHTS hits, selectivity assay for APJ receptor antagonist project, dose response (AID 463214); format: functional;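 note: antagonist potency against angiotensin II stimulated AT1 response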
T8 sequence (P30556 whole entry): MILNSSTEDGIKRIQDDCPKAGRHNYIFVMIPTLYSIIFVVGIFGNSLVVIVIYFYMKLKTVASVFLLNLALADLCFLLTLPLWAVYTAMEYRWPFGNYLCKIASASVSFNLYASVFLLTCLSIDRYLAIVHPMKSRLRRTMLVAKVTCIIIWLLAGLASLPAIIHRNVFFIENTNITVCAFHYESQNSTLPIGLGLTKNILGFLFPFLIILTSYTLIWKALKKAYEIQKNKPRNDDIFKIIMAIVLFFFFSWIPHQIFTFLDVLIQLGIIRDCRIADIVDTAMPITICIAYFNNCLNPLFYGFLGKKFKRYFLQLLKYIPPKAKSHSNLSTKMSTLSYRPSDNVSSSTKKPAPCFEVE

Beta-galactosidase, sequence (Q8VNN2 whole entry): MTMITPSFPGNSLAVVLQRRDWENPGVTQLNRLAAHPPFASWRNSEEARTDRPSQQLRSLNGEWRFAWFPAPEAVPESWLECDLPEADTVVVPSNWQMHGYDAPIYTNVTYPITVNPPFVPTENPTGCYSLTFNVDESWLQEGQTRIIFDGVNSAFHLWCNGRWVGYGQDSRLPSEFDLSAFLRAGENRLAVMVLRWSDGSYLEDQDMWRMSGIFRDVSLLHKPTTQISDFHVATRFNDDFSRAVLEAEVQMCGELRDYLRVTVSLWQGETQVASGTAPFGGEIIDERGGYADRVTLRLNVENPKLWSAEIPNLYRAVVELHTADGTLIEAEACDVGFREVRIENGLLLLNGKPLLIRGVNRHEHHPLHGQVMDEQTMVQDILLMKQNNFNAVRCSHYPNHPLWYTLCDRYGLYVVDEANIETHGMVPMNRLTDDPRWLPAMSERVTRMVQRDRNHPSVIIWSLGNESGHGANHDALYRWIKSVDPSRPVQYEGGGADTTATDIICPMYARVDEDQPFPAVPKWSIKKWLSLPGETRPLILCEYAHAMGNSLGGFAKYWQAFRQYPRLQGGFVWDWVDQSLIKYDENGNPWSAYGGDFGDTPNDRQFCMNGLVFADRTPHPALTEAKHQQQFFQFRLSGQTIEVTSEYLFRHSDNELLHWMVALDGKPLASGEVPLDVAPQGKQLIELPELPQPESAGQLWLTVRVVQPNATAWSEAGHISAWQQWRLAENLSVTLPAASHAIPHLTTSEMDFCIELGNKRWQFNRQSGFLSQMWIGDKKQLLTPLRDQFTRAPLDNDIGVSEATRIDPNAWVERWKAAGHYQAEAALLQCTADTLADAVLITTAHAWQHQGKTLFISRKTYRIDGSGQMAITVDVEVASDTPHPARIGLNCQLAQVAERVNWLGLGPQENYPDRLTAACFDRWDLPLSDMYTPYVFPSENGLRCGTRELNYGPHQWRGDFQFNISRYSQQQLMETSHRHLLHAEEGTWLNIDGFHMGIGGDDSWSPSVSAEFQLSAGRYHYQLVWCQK
FAD-linked sulfhydryl oxidase ALR, sequence (P55789 whole entry, the tested form may be a part): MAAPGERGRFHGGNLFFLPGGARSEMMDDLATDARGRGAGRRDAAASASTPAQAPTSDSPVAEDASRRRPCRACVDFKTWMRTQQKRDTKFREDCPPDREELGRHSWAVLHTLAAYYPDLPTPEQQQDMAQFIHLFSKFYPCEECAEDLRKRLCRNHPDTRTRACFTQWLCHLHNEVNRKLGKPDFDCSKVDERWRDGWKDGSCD
Cytochrome P450 3A4, sequence (P08684 whole entry): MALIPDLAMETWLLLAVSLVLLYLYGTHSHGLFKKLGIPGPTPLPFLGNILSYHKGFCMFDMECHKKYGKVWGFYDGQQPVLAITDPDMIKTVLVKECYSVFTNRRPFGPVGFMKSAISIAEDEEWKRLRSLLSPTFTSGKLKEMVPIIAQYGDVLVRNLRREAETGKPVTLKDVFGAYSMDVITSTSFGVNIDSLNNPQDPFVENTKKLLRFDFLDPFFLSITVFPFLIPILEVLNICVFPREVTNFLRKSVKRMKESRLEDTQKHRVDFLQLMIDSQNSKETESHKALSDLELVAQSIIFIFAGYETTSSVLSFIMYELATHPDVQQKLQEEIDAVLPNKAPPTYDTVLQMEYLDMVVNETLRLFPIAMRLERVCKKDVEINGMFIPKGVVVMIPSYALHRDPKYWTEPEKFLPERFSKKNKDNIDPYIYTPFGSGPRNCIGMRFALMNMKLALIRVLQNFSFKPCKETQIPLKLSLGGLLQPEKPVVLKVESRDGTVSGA
Photoreceptor-specific nuclear receptor, sequence (Q9Y5X4 whole entry, the tested form may be a part): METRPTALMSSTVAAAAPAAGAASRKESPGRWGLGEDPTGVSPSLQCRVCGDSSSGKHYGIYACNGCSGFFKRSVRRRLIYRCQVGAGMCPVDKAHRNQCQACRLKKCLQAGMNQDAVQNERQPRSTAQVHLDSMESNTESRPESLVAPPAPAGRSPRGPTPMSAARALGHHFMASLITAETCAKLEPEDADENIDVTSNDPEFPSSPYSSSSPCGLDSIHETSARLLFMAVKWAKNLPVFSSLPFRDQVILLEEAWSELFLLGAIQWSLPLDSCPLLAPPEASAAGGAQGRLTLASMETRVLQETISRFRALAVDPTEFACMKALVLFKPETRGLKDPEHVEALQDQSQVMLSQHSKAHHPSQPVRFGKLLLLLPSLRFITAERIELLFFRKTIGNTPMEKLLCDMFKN

SMILES: O=C(NNC(=O)c1cc(-c2ccc(Cl)cc2Cl)nc2ccccc12)Nc1ccccc1
- CC50 [1]: 16.9 µM (active)
- EC50 [2]: 5.3 µM (active)
- EC50 (Streptokinase A): 20.4 µM (active)
- EC50 (Streptococcus): 8.55 µM (active)
- IC50 [3]: 2.74 µM (active)
- IC50 [4]: 42.2 µM (inactive)
- IC50 [5]: 1.28 µM (active)

SMILES: O=C(Nc1ccc(O)c(-c2nc3ccccc3s2)c1)c1cc(=O)c2ccccc2o1
- IC50 [6]: 5.27 µM (active)

SMILES: COc1cc(Nc2ccc(C(=O)O)cc2[N+](=O)[O-])cc(OC)c1
- EC50 [7]: > 104 µM (inactive)

SMILES: O=C(COC(=O)c1ccc([N+](=O)[O-])s1)NC(c1ccccc1)c1ccccc1
- EC50 [7]: 32.8 µM (inactive)

SMILES: CC(=O)Nc1ccc(S(=O)(=O)N2CCN=C2SCc2ccc([N+](=O)[O-])cc2)cc1
- AC50 [8]: 0.252 µM (active)
- IC50 [9]: 2.82 µM (active)

SMILES: CCOC(=O)CSC1=NC(=O)/C(=C\c2ccc(OC(C)=O)cc2)S1
- EC50 [10]: 8.97 µM (active)
- EC50 [11]: 10.4 µM (active)
- EC50 (H4): 10.5 µM (active)
- AC50 [12]: 5.12 µM (active)
- EC50 [13]: > 99 µM (inactive)
- EC50 [14]: > 99 µM (inactive)
- AC50 [15]: 0.216 µM (active)
- IC50 [16]: 35.2 µM (active)
- AC50 (Cytochrome P450 3A4): 14.1 µM (inconclusive)

SMILES: COc1ccc(N=C2C(=O)Nc3ccc(C)c(Br)c32)cc1
- EC50 (Beta-galactosidase): > 40 µM (inactive)
- IC50 [17]: 3.94 µM (active)

SMILES: O=C(O)c1cn(C2CC2)c2cc(N3CCN(S(=O)(=O)c4ccc5c(c4)OCCO5)CC3)c(F)cc2c1=O
- IC50 [6]: 2.89 µM (active)

SMILES: O=C(C[N+]1(CC#Cc2ccccc2)CCOCC1)c1ccc(Cl)cc1
- EC50 (Beta-galactosidase): > 40 µM (inactive)
- IC50 [17]: 39.4 µM (not active)

SMILES: O=C(CNc1cccc(Cl)c1)c1ccc(Cl)cc1
- EC50 (Beta-galactosidase): > 40 µM (inactive)
- IC50 [17]: 5.07 µM (active)

SMILES: O=C(Cc1ccc(S(=O)(=O)N2CCOCC2)s1)Nc1ccc(Br)c(C(F)(F)F)c1
- IC50 [3]: 19.2 µM (inactive)
- IC50 [4]: 46.7 µM (inactive)
- IC50 [5]: 20.9 µM (inactive)

SMILES: Cc1ccc(SCCC(=O)N/N=C/c2cccnc2)cc1
- IC50 [3]: 29.2 µM (inactive)
- IC50 [4]: 83.3 µM (inactive)
- IC50 [5]: 25.9 µM (inactive)

SMILES: Cc1ccc(/N=C2\C(=O)Nc3ccccc32)cc1
- EC50 (Beta-galactosidase): > 40 µM (inactive)
- IC50 [17]: > 40 µM (not active)
